{"source": "patent EP2545917B1", "about": "“NOVEL EP4 AGONIST” (Kaken Pharmaceutical Co., Ltd., priority 2010, dated 2011)", "key": {"[1]": {"test_system": "anti-Thy-1 antibody-induced glomerulonephritis", "test": "Anti-Thy-1 antibody-induced glomerulonephritis model in rats", "assay_type": "in vivo, Wistar rats", "details": "oral 0.3 mg/kg twice a day", "procedure": "Male Slc: Wistar rats (6 weeks old, Japan SLC) were purchased, acclimated for 1 week and used for the study. Except the normal group, anti-Thy-1 antibody (mouse anti-CD90 antibody (UK-Serotech Ltd. Code:MCA47XZ, clone No: MRC OX-7, Lot No.0303)) was administered once intravenously to the animals. A mixture of compound F and compound J (F:J = 52:41, indicated as compound F/J) was orally administered from the day of the antibody administration (day 0) to day 6, daily, twice a day (morning and evening; each 0.3 mg/kg). After 3 days from the antibody administration, urine was collected for one day. On day 7 of the antibody administration, the animal was autopsied. The right kidney was isolated, weighed and fixed with formalin. Five to 8 animals were used for each group and the results were expressed as average ± standard deviation."}, "[2]": {"test_system": "dextran sodium sulfate-induced colitis", "test": "Therapeutic effect on remission/relapse model of dextran sodium sulfate-induced colitis in mice", "assay_type": "in vivo, BALB/c mice", "details": "SASP 100 mg/kg", "text": "Next, therapeutic effect of compound F on colitis was studied in a chronic model. Female BALB/c mice, 6 weeks old, body weight about 20 g (Japan SLC) were purchased, acclimated for 1 week and used for the study. The mice were divided into a colitis induction group and a normal group. The colitis induction group was allowed to freely drink a 2.6 w/v% DSS (MP Biochemicals, M.W. 36,000- 50,000, Lot No. 4556J) solution to induce colitis. On day 8 when the stool score (defined in Example 23) of the colitis induction group reached about 4.5, the mice were subdivided into a control group, a compound F 1 mg/kg administration group and a salazosulfapyridine (SIGMA, Lot No. 085K1930, hereinafter to be abbreviated as SASP) 100 mg/kg administration group. Then the mice were allowed to freely drink distilled water instead of DSS solution for 9 days (remission period). After the grouping, the stool score was evaluated every 3 - 4 days. When the score of the control group reached about 1, the mice were again allowed to drink the DSS solution to cause a relapse (relapse period). The periods of remission and relapse were taken as 1 cycle and the cycle was repeated 5 times. As for the 5th cycle, however, only the remission period was performed.\nCompound F at a dose of 1 mg/kg and SASP at a dose of 100 mg/kg were orally administered once a day, daily, for 50 days from the initial remission period (day 8 from the start of 2.6 w/v% DSS drinking) to the fifth remission period (day 57 from the start of 2.6 w/v% DSS drinking). To the control group was orally administered a solvent (1 vol% ethanol solution) at 10 mL/kg. If a mouse had score 0 of both stool consistency score and occult blood score on the last day of each remission period, the mouse was regarded as \"in remission\". The remission ratio (%) was calculated as a ratio of mice in remission in each group. Eight to 10 mice were used for each group and the results are shown in average value."}, "[3]": {"test_system": "concanavalin A-induced hepatitis", "test": "Prophylactic effect on concanavalin A-induced hepatitis model in mice", "assay_type": "in vivo, BALB/c mice", "details": "oral 1 hr before Con A, compound F 1 mg/10 mL/kg, prednisolone 5 mg/10 mL/kg, 20 hr after Con A", "procedure": "BALB/c mice (female, 7 weeks old, Japan SLC) were purchased, acclimated for 1 week and used for the study. Except the no-induction group, Con A (type IV, Sigma-Aldrich) dissolved in saline was administered from the tail vein of the mice at a dose of 12.5 mg/10 mL/kg to induce hepatitis. Twenty hr later, the mice were subjected to laparotomy under ether anesthesia. A 0.5 mL of blood sample was collected from the caudal vena cava and heparinized plasma was obtained to measure plasma ALT and AST activities. Test substances were compound F (1 mg/10 mL solution), prednisolone (Nacalai Tesque, 5 mg/10 mL suspension (with 0.5 w/v% methylcellulose)) and water for injection (administered to the control group), which were orally administered at a volume of 10 mL/kg 1 hr before Con A injection. Seven to 9 animals were used for each group. After logarithmic transformation of the data, one-way analysis of variance was performed for statistical evaluation."}, "[4]": {"test_system": "CD4+CD25- T cell transfer colitis", "test": "Prophylactic effect on CD4+CD25- T cell transfer colitis model in mice", "assay_type": "in vivo, C.B-17/Icr-scid mice", "details": "scid mice, oral 1 mg/kg once a day for 20 days", "procedure": "Female BALB/cA Jcl mice, 6 weeks old, body weight 19 - 23 g (CLEA Japan, Inc.) and female C.B-17/Icr-scid mice (6 weeks old, CLEA Japan, Inc.) were purchased, acclimated for 1 week and used for the study. After laparotomy under ether anesthesia, BALB/cA Jcl mice were exsanguinated to death through the abdominal aorta and caudal vena cava, and the spleen was isolated. Splenocytes were prepared from the spleen and then CD4^+CD25^- T cells were prepared with a CD4^+ T cell Isolation Kit (No. 130-090-860, Milky Biotech Co., Ltd.) and CD25-Biotin antibody (No. 130-092-569, Milky Biotech Co., Ltd.). The cells were separated using the autoMACS Separator (Milky Biotech Co., Ltd.). The separated CD4^+CD25^- T cells were suspended in physiological phosphate buffer solution, and 2.5×10^5 cells per animal were intraperitoneally administered to C.B-17/Icr-scid mice to induce colitis. […] To the control group was orally administered a solvent (1 vol% ethanol solution) at 10 mL/kg. […] The fecal occult blood score was evaluated in the same manner as in Example 23. […] Eight to 10 mice were used for each group and the results were expressed as average."}, "[5]": {"details": "mice, oral once a day, Compound F 1 mg/kg"}}}
{"smiles": "Cc1cccc(C(C)[C@H](O)/C=C/[C@@H]2[C@@H]3[C@H](C[C@H]2O)O/C(=C\\CCCc2nnn[nH]2)C3(F)F)c1", "note": "(mixture of isomers) [compound F/J, 4-[(Z)-(1S,5R,6R,7R)-6-[(1E,3R,4RS)-3-hydroxy-4-(m-tolyl)-1-pentenyl]-7-hydroxy-2-oxa-4,4-difluoro-bicyclo[3.3.0]octan-3-ylidene]-1-(tetrazol-5-yl)butane]", "values": [{"measurement": "body weight", "setting": "[1]", "value": "a shift similar to that of the control group"}, {"measurement": "relative kidney weight", "setting": "[1]; day 7", "value": "a value lower than control and near the normal"}, {"measurement": "renal histopathology: total glomerular cells, mesangial region and PCNA-positive cells in the glomerulus", "setting": "[1]; day 7", "value": "significantly suppressed the increase in all of these measures"}, {"measurement": "24-hr urine protein", "setting": "[1]; urine collected after 3 days", "value": "a lower value than control"}, {"measurement": "24-hr urine volume", "setting": "[1]; urine collected after 3 days", "value": "of the same level as the normal group"}]}
{"smiles": "O=C(O)c1cc(/N=N/c2ccc(S(=O)(=O)Nc3ccccn3)cc2)ccc1O", "note": "[SASP, salazosulfapyridine, reference compound]", "values": [{"measurement": "Remission Ratio Average", "setting": "[2]; average of 5 remission periods, Compound F 1 mg/kg", "value": 40.0, "unit": "%"}, {"measurement": "effect on stool score in remission and relapse periods", "setting": "[2]; mice, oral once a day for 50 days, compound F 1 mg/kg", "value": "did not show a clear effect on the stool score in either the remission period or the relapse period"}, {"measurement": "Remission Ratio Cycle 1", "setting": "[2]; [5]", "value": 50.0, "unit": "%"}, {"measurement": "Remission Ratio Cycle 2", "setting": "[2]; [5]", "value": 50.0, "unit": "%"}, {"measurement": "Remission Ratio Cycle 3", "setting": "[2]; [5]", "value": 37.5, "unit": "%"}, {"measurement": "Remission Ratio Cycle 4", "setting": "[2]; [5]", "value": 50.0, "unit": "%"}, {"measurement": "Remission Ratio Cycle 5", "setting": "[2]; [5]", "value": 12.5, "unit": "%"}]}
{"smiles": "C[C@]12C=CC(=O)C=C1CC[C@@H]1[C@@H]2[C@@H](O)C[C@@]2(C)[C@H]1CC[C@]2(O)C(=O)CO", "note": "[prednisolone, reference compound]", "values": [{"measurement": "effect on increase of plasma ALT activity", "setting": "[3]", "value": "significantly and strongly suppressed the increase"}, {"measurement": "effect on increase of plasma AST activity", "setting": "[3]", "value": "significantly and strongly suppressed the increase"}, {"measurement": "effect on body weight decrease score", "setting": "[4]", "value": "clearly worsened the score"}, {"measurement": "effect on stool consistency score", "setting": "[4]", "value": "failed to show a clear effect on the stool consistency score on day 21"}]}
